# Assay results published in patent US11219218B2, “Methods of enhancing algae production” (Boise State University, priority 2018, dated 2022).
# Where two headings read alike, the source gives them in different places.
# Tests used:
# B. plicatilis [1] = details: for effect of elevated free ammonia exposure time on 24-hour rotifer survival: pH 9, exposure 0-12 hours; for mean rotifer densities over the eight-day experiment: f/2 and ADE media
# Procedure: (§1) Five free ammonia exposure times were chosen (0, 1, 2, 6, and 12 hours) with the goal of identifying which times may lead to an optimal reduction of B. plicatilis populations without negatively affecting N. oculata growth. We also used a rotifer-free control to observe the growth of N. oculata with neither rotifers nor elevated free ammonia exposure relative to experimental treatments. We conducted this experiment in both defined media (f/2) and dairy wastewater (ADE) to observe any differences between media types. For the defined medium trial, we created culture mixtures containing f/2 in ASW, 0.01 M Tris base, N. oculata at approximately 1×10^6 cells mL^−1 and B. plicatilis at approximately 10 rotifers mL^−1. NH4Cl was added to this mixture to initiate the period of free ammonia exposure. Similarly, for the dairy wastewater trial, we created culture mixtures containing ASW, 0.01 M Tris base, N. oculata at approximately 1×10^6 cells mL^−1, and B. plicatilis at approximately 10 rotifers/mL. The initial cell density of N. oculata was meant to represent a high-density culture nearing early stationary phase, which also allowed for increases in cell density. The initial rotifer density was chosen to represent initial stages of a contamination event after exposure of the algal culture to colonizing rotifer pests, at which point contamination is detectable yet treatable. ADE was added to this mixture to initiate the period of free ammonia exposure. For both trials, pH was immediately adjusted to 9 for the 1, 2, 6, and 12 hour treatments and held at this pH for the designated exposure time. The 0 hour and control treatments were adjusted to pH 6.3-6.5 via CO2 addition prior to addition of the ammonium source, thereby eliminating any exposure to elevated free ammonia. […] Thus, all treatments within an experiment received the same amount of CO2 and the same amount of total NH3—N. Flasks were shaken and stirred once daily on a stir plate while pH was being adjusted to desired level. In this experiment, pH was measured and controlled in each treatment using American Marine Pinpoint pH controllers.
# (§2) Samples for total NH3—N were collected at the beginning and end of the exposure time for each treatment in order to quantify potential loss of N from the system caused by volatilization of free ammonia. Densities of N. oculata and B. plicatilis were measured at the initial free ammonia exposure time, and every 24 hours thereafter for eight days. Live B. plicatilis were enumerated in triplicate 1 mL counts in a Sedgewick-Rafter counting chamber (Wildco item #EW-05491-64), and growth of N. oculata was tracked by both OD680 measurement and direct cell counts. Final ash free dry weight (AFDW) was measured on day eight for all replicates.
# (§3) We chose this range in order to eliminate possible free ammonia inhibition after the designated exposure period while also staying within the pH range for optimal growth of N. oculata.
# N. oculata [2] = details: for algal growth rate / final AFDW: co-culture with B. plicatilis; for final AFDW: day eight
# Procedure: as §1, §2, §3
# B. plicatilis [3] = tested on: B. plicatilis
# N. oculata [4] = tested on: N. oculata
# Brachionus rotifer = details: cited from earlier work
# Scenedesmus obliquus = details: Abeliovich and Azov, 1976; cited from earlier work
# Chlorella pyrenoidosa = details: Tan et al., 2015; cited from earlier work
# Nannochloropsis oculata = details: Gutierrez et al., 2016, cited from earlier work
# Chlorella sorokiniana = details: Gutierrez et al., 2016; cited from earlier work
smiles,measurement,setting,value
"N [free ammonia, ammonia]",prediction formula for 24-hour B. plicatilis survival against exposure time (FIG. 3),"B. plicatilis [1]; ADE medium, 52.8 mg L^−1 free ammonia",ln(% survival)=4.768-0.2902*exposure time
same,effect of elevated free ammonia exposure time on 24-hour rotifer survival,B. plicatilis [1]; dairy ADE medium,significantly decreased
same,effect of elevated free ammonia exposure time on 24-hour rotifer survival,B. plicatilis [1]; f/2 medium,significantly decreased
same,mean rotifer densities over the eight-day experiment,B. plicatilis [1]; six-hour exposure time,remained below the initial density
same,mean rotifer densities over the eight-day experiment,B. plicatilis [1]; twelve-hour exposure time,remained below the initial density
same,rotifer density over the eight-day experiment,"B. plicatilis [1]; two hours or less of exposure, ADE medium","proliferated, with up to an order of magnitude increase in rotifer density"
same,effects on the alga Nannochloropsis oculata,"N. oculata [2]; 6-12 hours of elevated free ammonia, both media types",no negative effects
same,algal growth rate,N. oculata [2]; 6-hour exposure time,0.70 ± 0.01 day⁻¹
same,final AFDW,N. oculata [2]; 6-hour exposure time,0.37 ± 0.004 g/L
same,algal growth rate,N. oculata [2]; 12-hour exposure time,0.60 ± 0.06 day⁻¹
same,final AFDW,N. oculata [2]; 12-hour exposure time,0.38 ± 0.004 g/L
same,prediction formula for 24-hour rotifer survival against free ammonia concentration (FIG. 1A),B. plicatilis [3]; 5% ADE medium,ln(% survival)=3.606-0.0357*exposure time
same,relationship between initial free ammonia concentration and B. plicatilis survival after 24 hours,"B. plicatilis [3]; 5% dairy ADE, free ammonia 0.77-48.9 mg L^−1 (pH 7-9)",significant negative relationship
same,relationship between initial free ammonia concentration and B. plicatilis survival after 24 hours,"B. plicatilis [3]; ASW medium with NH4Cl, free ammonia 0.65-41.6 mg L^−1 (pH 7-9)",significant negative relationship
same,effect of free ammonia concentration on final OD680 levels,N. oculata [4]; ADE cultures,no effect
same,effect of initial free ammonia on growth rates,N. oculata [4]; ADE medium,no effect
same,OD680 levels of N. oculata with increasing free ammonia levels,N. oculata [4]; f/2 medium,increased
same,effect of initial free ammonia on growth rates,N. oculata [4]; f/2 medium,no effect
same,inhibition of N. oculata,"N. oculata [4]; f/2 or ADE media, any of the free ammonia levels tested, seven days",no observed inhibition
same,concentration that causes complete mortality,"Brachionus rotifer; Schlüter and Groeneweg, 1985",over 5 mg/L free NH3—N
same,concentration that reduces Brachionus rotifer reproduction,"Brachionus rotifer; de Araujo et al., 2000",≥ 2.4 mg/L
same,concentration tolerated without inhibition of photosynthesis or growth rate,Scenedesmus obliquus,up to 28 mg/L free NH3—N
same,concentration tolerated without inhibition of photosynthesis or growth rate,Chlorella pyrenoidosa,up to 20 mg/L free NH3—N
same,"highest level tested, not inhibited",Nannochloropsis oculata,16 mg free NH3—N
same,lipid content of N. oculata,Nannochloropsis oculata; exposure to high free ammonia levels,not significantly altered
same,"highest level tested, not inhibited",Chlorella sorokiniana,16 mg free NH3—N
